Columns and labels:
Danio rerio embryo/larva [1] = experiment: max % larvae unhatched across tested concentrations; max tested concentration (log10 uM): 2; higher = more toxic; conditions: exposure: 6-8 hpf to 5 dpf, scored at 6 dpf
Danio rerio embryo/larva [2] = experiment: BMC mortality; max tested concentration (log10 uM): 2; higher = less potent; conditions: exposure: 6-8 hpf to 5 dpf, scored at 6 dpf
Method: (§1)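 Zebrafish embryos (with chorion) were exposed from 6-8 hpf to each PFAS (8-point half-log series, top concentration up to 100 uM, 0.4% DMSO, sealed plates, 26 C; n = 6 embryos per concentration), rinsed at 5 dpf and scored at 6 dpf by two blinded observers for mortality, hatching and malformations. Endpoint scores are the % of living larvae affected (dead larvae excluded; […]). Curves were fitted with tcpl (cutoff 16%), and the BMC is the concentration at a benchmark response of 21.6%.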

Danio rerio embryo/larva [3] = experiment: max % larvae with any abnormality across tested concentrations; max tested concentration (log10 uM): 2; higher = more toxic; extreme values may be limits of the assay; conditions: exposure: 6-8 hpf to 5 dpf, scored at 6 dpf
Danio rerio embryo/larva [4] = experiment: max % larvae dead across tested concentrations; max tested concentration (log10 uM): 2; higher = more toxic; extreme values may be limits of the assay; conditions: exposure: 6-8 hpf to 5 dpf, scored at 6 dpf
Danio rerio embryo/larva [5] = experiment: BMC any abnormality; max tested concentration (log10 uM): 2; higher = less potent; conditions: exposure: 6-8 hpf to 5 dpf, scored at 6 dpf
Method: as §1

Danio rerio embryo/larva [6] = experiment: BMC swim bladder non-inflation; higher = less potent; conditions: exposure: 6-8 hpf to 5 dpf, scored at 6 dpf
Method: as §1

Danio rerio embryo/larva [7] = experiment: BMC edema; higher = less potent; conditions: exposure: 6-8 hpf to 5 dpf, scored at 6 dpf
Method: as §1

Danio rerio embryo/larva [8] = experiment: BMC craniofacial defects; higher = less potent; conditions: max tested concentration (log10 uM): 2; exposure: 6-8 hpf to 5 dpf, scored at 6 dpf
Method: as §1

Danio rerio embryo/larva [9] = experiment: BMC abnormal position; higher = less potent; conditions: max tested concentration (log10 uM): 1.47712; exposure: 6-8 hpf to 5 dpf, scored at 6 dpf
Method: as §1

Danio rerio embryo/larva [10] = experiment: max % larvae with craniofacial defects across tested concentrations; higher = more toxic; extreme values may be limits of the assay; conditions: exposure: 6-8 hpf to 5 dpf, scored at 6 dpf
Danio rerio embryo/larva [11] = experiment: max % larvae with uninflated swim bladder across tested concentrations; higher = more toxic; extreme values may be limits of the assay; conditions: exposure: 6-8 hpf to 5 dpf, scored at 6 dpf
Danio rerio embryo/larva [12] = experiment: max % larvae with spinal defects across tested concentrations; higher = more toxic; extreme values may be limits of the assay; conditions: exposure: 6-8 hpf to 5 dpf, scored at 6 dpf
Danio rerio embryo/larva [13] = experiment: BMC general abnormality; higher = less potent; conditions: exposure: 6-8 hpf to 5 dpf, scored at 6 dpf
Method: as §1

Danio rerio embryo/larva [14] = experiment: max % larvae with tail defects across tested concentrations; higher = more toxic; extreme values may be limits of the assay; conditions: exposure: 6-8 hpf to 5 dpf, scored at 6 dpf
Danio rerio embryo/larva [15] = experiment: max % larvae generally abnormal across tested concentrations; higher = more toxic; extreme values may be limits of the assay; conditions: exposure: 6-8 hpf to 5 dpf, scored at 6 dpf
Danio rerio embryo/larva [16] = experiment: max % larvae with blood pooling across tested concentrations; higher = more toxic; extreme values may be limits of the assay; conditions: exposure: 6-8 hpf to 5 dpf, scored at 6 dpf
Danio rerio embryo/larva [17] = experiment: max % larvae with abnormal position across tested concentrations; higher = more toxic; extreme values may be limits of the assay; conditions: exposure: 6-8 hpf to 5 dpf, scored at 6 dpf
Danio rerio embryo/larva [18] = experiment: max % larvae with pigmentation defects across tested concentrations; higher = more toxic; conditions: exposure: 6-8 hpf to 5 dpf, scored at 6 dpf
Danio rerio embryo/larva [19] = experiment: max % larvae with edema across tested concentrations; higher = more toxic; extreme values may be limits of the assay; conditions: exposure: 6-8 hpf to 5 dpf, scored at 6 dpf
[20] = max tested concentration (log10 uM): 1
[21] = max tested concentration (log10 uM): 2
[22] = max tested concentration (log10 uM): 1.47712

SMILES: C[N+](C)(C)CCCNS(=O)(=O)C(F)(F)C(F)(F)C(F)(F)C(F)(F)C(F)(F)C(F)(F)C(F)(F)C(F)(F)F
- max % larvae unhatched across tested concentrations (Danio rerio embryo/larva [1]): 0%
- BMC mortality (Danio rerio embryo/larva [2]): 19.8 µM
- max % larvae (Danio rerio embryo/larva [3]): 100%
- max % larvae dead across tested concentrations (Danio rerio embryo/larva [4]): 100%
- BMC any abnormality (Danio rerio embryo/larva [5]): 22.3 µM

SMILES: C=CC(=O)OCC(F)(F)C(F)(F)C(F)(F)COC(=O)C=C [1H,1H,5H,5H-Perfluoro-1,5-pentanediol diacrylate]
- max % larvae unhatched across tested concentrations (Danio rerio embryo/larva [1]): 0%
- BMC mortality (Danio rerio embryo/larva [2]): 8.77 µM
- max % larvae (Danio rerio embryo/larva [3]): 100%
- max % larvae dead across tested concentrations (Danio rerio embryo/larva [4]): 100%
- BMC any abnormality (Danio rerio embryo/larva [5]): 7.62 µM

SMILES: C=CC(=O)OCC(F)(F)C(F)(F)C(F)(F)C(F)(F)COC(=O)C=C [1H,1H,6H,6H-Perfluorohexane-1,6-diol diacrylate]
- max % larvae unhatched across tested concentrations (Danio rerio embryo/larva [1]): 0%
- BMC mortality (Danio rerio embryo/larva [2]): 8.28 µM
- max % larvae (Danio rerio embryo/larva [3]): 100%
- BMC swim bladder non-inflation (Danio rerio embryo/larva [6]; [20]): 2.81 µM
- BMC edema (Danio rerio embryo/larva [7]; [20]): 8.94 µM
- max % larvae dead across tested concentrations (Danio rerio embryo/larva [4]): 100%
- BMC any abnormality (Danio rerio embryo/larva [5]): 1.52 µM

SMILES: OCC(F)(F)C(F)(F)C(F)(F)C(F)(F)C(F)(F)C(F)(F)CO [1H,1H,8H,8H-Perfluorooctane-1,8-diol]
- max % larvae unhatched across tested concentrations (Danio rerio embryo/larva [1]): 0%
- BMC craniofacial defects (Danio rerio embryo/larva [8]): 91 µM
- max % larvae (Danio rerio embryo/larva [3]): 91.7%
- BMC swim bladder non-inflation (Danio rerio embryo/larva [6]; [21]): 10.4 µM
- BMC edema (Danio rerio embryo/larva [7]; [21]): 50.7 µM
- max % larvae dead across tested concentrations (Danio rerio embryo/larva [4]): 0%
- BMC any abnormality (Danio rerio embryo/larva [5]): 41.3 µM

SMILES: OCC(F)(F)C(F)(F)C(F)(F)C(F)(F)C(F)(F)C(F)(F)C(F)(F)C(F)(F)CO [1H,1H,10H,10H-Perfluorodecane-1,10-diol]
- max % larvae unhatched across tested concentrations (Danio rerio embryo/larva [1]): 0%
- BMC mortality (Danio rerio embryo/larva [2]): 19.5 µM
- max % larvae (Danio rerio embryo/larva [3]): 100%
- BMC swim bladder non-inflation (Danio rerio embryo/larva [6]; [20]): 3.47 µM
- max % larvae dead across tested concentrations (Danio rerio embryo/larva [4]): 100%
- BMC any abnormality (Danio rerio embryo/larva [5]): 4.08 µM

SMILES: OCCC(F)(F)C(F)(F)C(F)(F)C(F)(F)C(F)(F)C(F)(F)F [2-(Perfluorohexyl)ethanol]
- max % larvae unhatched across tested concentrations (Danio rerio embryo/larva [1]): 0%
- BMC craniofacial defects (Danio rerio embryo/larva [8]): 27.9 µM
- max % larvae (Danio rerio embryo/larva [3]): 89.6%
- BMC swim bladder non-inflation (Danio rerio embryo/larva [6]; [21]): 26.2 µM
- BMC edema (Danio rerio embryo/larva [7]; [21]): 3.37 µM
- max % larvae dead across tested concentrations (Danio rerio embryo/larva [4]): 8.33%
- BMC any abnormality (Danio rerio embryo/larva [5]): 10.4 µM

SMILES: OCCC(F)(F)C(F)(F)C(F)(F)C(F)(F)C(F)(F)C(F)(F)C(F)(F)C(F)(F)F [2-(Perfluorooctyl)ethanol]
- max % larvae unhatched across tested concentrations (Danio rerio embryo/larva [1]): 0%
- BMC mortality (Danio rerio embryo/larva [2]): 89 µM
- max % larvae (Danio rerio embryo/larva [3]): 58.3%
- max % larvae dead across tested concentrations (Danio rerio embryo/larva [4]): 25%

SMILES: O=C(O)CCC(F)(F)C(F)(F)C(F)(F)C(F)(F)C(F)(F)F [2H,2H,3H,3H-Perfluorooctanoic acid]
- max % larvae unhatched across tested concentrations (Danio rerio embryo/larva [1]): 0%
- BMC abnormal position (Danio rerio embryo/larva [9]): 12.2 µM
- BMC mortality (Danio rerio embryo/larva [2]): 24.8 µM
- max % larvae (Danio rerio embryo/larva [3]): 100%
- BMC swim bladder non-inflation (Danio rerio embryo/larva [6]; [22]): 9.28 µM
- BMC edema (Danio rerio embryo/larva [7]; [22]): 9.38 µM
- max % larvae dead across tested concentrations (Danio rerio embryo/larva [4]): 100%
- BMC any abnormality (Danio rerio embryo/larva [5]): 8.77 µM

SMILES: O=C(O)CCC(F)(F)C(F)(F)C(F)(F)C(F)(F)C(F)(F)C(F)(F)F [3-(Perfluorohexyl)propanoic acid]
- max % larvae unhatched across tested concentrations (Danio rerio embryo/larva [1]): 0%
- BMC mortality (Danio rerio embryo/larva [2]): 19.5 µM
- max % larvae (Danio rerio embryo/larva [3]): 100%
- BMC edema (Danio rerio embryo/larva [7]; [20]): 9.01 µM
- max % larvae dead across tested concentrations (Danio rerio embryo/larva [4]): 100%
- BMC any abnormality (Danio rerio embryo/larva [5]): 8.2 µM

SMILES: OCCCCC(F)(F)C(F)(F)C(F)(F)C(F)(F)F [4:4 Fluorotelomer alcohol]
- max % larvae unhatched across tested concentrations (Danio rerio embryo/larva [1]): 0%
- BMC craniofacial defects (Danio rerio embryo/larva [8]): 34.7 µM
- BMC mortality (Danio rerio embryo/larva [2]): 86.5 µM
- max % larvae (Danio rerio embryo/larva [3]): 97.9%
- BMC swim bladder non-inflation (Danio rerio embryo/larva [6]; [21]): 27.1 µM
- BMC edema (Danio rerio embryo/larva [7]; [21]): 25.8 µM
- max % larvae dead across tested concentrations (Danio rerio embryo/larva [4]): 41.7%
- BMC any abnormality (Danio rerio embryo/larva [5]): 25.5 µM

SMILES: O=C(O)C(F)(F)C(F)(F)C(F)(F)C(F)(F)C(F)(F)C(F)(F)C(F)(F)C(F)(F)C(F)(F)C(F)F [11-H-Perfluoroundecanoic acid]
- max % larvae unhatched across tested concentrations (Danio rerio embryo/larva [1]): 0%
- BMC mortality (Danio rerio embryo/larva [2]): 11.2 µM
- max % larvae (Danio rerio embryo/larva [3]): 100%
- BMC edema (Danio rerio embryo/larva [7]; [22]): 12.6 µM
- max % larvae dead across tested concentrations (Danio rerio embryo/larva [4]): 100%
- BMC any abnormality (Danio rerio embryo/larva [5]): 12.9 µM

SMILES: O=C(CC(=O)C(F)(F)C(F)(F)C(F)(F)F)c1cccs1 [(Perfluorobutyryl)-2-thenoylmethane]
- max % larvae unhatched across tested concentrations (Danio rerio embryo/larva [1]): 0%
- BMC mortality (Danio rerio embryo/larva [2]): 6.44 µM
- max % larvae (Danio rerio embryo/larva [3]): 100%
- max % larvae dead across tested concentrations (Danio rerio embryo/larva [4]): 100%
- BMC any abnormality (Danio rerio embryo/larva [5]): 3.11 µM

SMILES: CCNS(=O)(=O)C(F)(F)C(F)(F)C(F)(F)C(F)(F)C(F)(F)C(F)(F)C(F)(F)C(F)(F)F [N-Ethylperfluorooctane sulfonamide]
- max % larvae unhatched across tested concentrations (Danio rerio embryo/larva [1]): 0%
- BMC mortality (Danio rerio embryo/larva [2]): 19.5 µM
- max % larvae (Danio rerio embryo/larva [3]): 100%
- BMC swim bladder non-inflation (Danio rerio embryo/larva [6]; [20]): 3.13 µM
- BMC edema (Danio rerio embryo/larva [7]; [20]): 2.88 µM
- max % larvae dead across tested concentrations (Danio rerio embryo/larva [4]): 100%
- BMC any abnormality (Danio rerio embryo/larva [5]): 2.37 µM

SMILES: CNS(=O)(=O)C(F)(F)C(F)(F)C(F)(F)C(F)(F)C(F)(F)C(F)(F)C(F)(F)C(F)(F)F [N-Methylperfluorooctanesulfonamide] (max tested concentration (log10 uM): 2)
- max % larvae (Danio rerio embryo/larva [10]): 18.2%
- max % larvae (Danio rerio embryo/larva [11]): 90.9%
- max % larvae (Danio rerio embryo/larva [12]): 0%
- BMC general abnormality (Danio rerio embryo/larva [13]): 0.968 µM
- max % larvae (Danio rerio embryo/larva [14]): 0%
- max % larvae generally abnormal across tested concentrations (Danio rerio embryo/larva [15]): 50%
- max % larvae (Danio rerio embryo/larva [16]): 0%
- max % larvae (Danio rerio embryo/larva [17]): 8.33%
- max % larvae (Danio rerio embryo/larva [18]): 0%
- max % larvae (Danio rerio embryo/larva [19]): 36.4%

SMILES: FC(F)(I)C(F)(F)C(F)(F)C(F)(F)I [Perfluoro-1,4-diiodobutane]
- max % larvae unhatched across tested concentrations (Danio rerio embryo/larva [1]): 0%
- BMC craniofacial defects (Danio rerio embryo/larva [8]): 74.2 µM
- max % larvae (Danio rerio embryo/larva [3]): 70.8%
- BMC swim bladder non-inflation (Danio rerio embryo/larva [6]; [21]): 25.6 µM
- BMC edema (Danio rerio embryo/larva [7]; [21]): 20.6 µM
- max % larvae dead across tested concentrations (Danio rerio embryo/larva [4]): 16.7%
- BMC any abnormality (Danio rerio embryo/larva [5]): 14.8 µM

SMILES: FC(F)(I)C(F)(F)C(F)(F)C(F)(F)I [Perfluoro-1,4-diiodobutane] (max tested concentration (log10 uM): 2)
- max % larvae (Danio rerio embryo/larva [10]): 50%
- max % larvae (Danio rerio embryo/larva [11]): 66.7%
- max % larvae (Danio rerio embryo/larva [12]): 16.7%
- BMC general abnormality (Danio rerio embryo/larva [13]): 20.6 µM
- max % larvae (Danio rerio embryo/larva [14]): 20.8%
- max % larvae generally abnormal across tested concentrations (Danio rerio embryo/larva [15]): 58.3%
- max % larvae (Danio rerio embryo/larva [16]): 20%
- max % larvae (Danio rerio embryo/larva [17]): 16.7%
- max % larvae (Danio rerio embryo/larva [18]): 0%
- max % larvae (Danio rerio embryo/larva [19]): 58.3%
